Test results: patent US11510931B2, “Compositions and methods for treating ophthalmic conditions” (MEDICON PHARMACEUTICALS, INC., priority 2016, dated 2022)
Read-outs that look alike come from different tables or passages of the source.

Experiments:
[1] = Ocular biodistribution of PS after topical eye drops in New Zealand white rabbits (HPLC); format: in vivo, rabbit; details: New Zealand white, rabbit, topical
Description: Results: The above PS formulation was administered topically as eye drops to the eyes of New Zealand white rabbits. The levels of PS in ocular tissues 1 h and 3 h later were determined by HPLC. The Table below summarizes the findings:
Results: The above PS formulation was administered topically as eye drops to the eyes of New Zealand white rabbits. The levels of PS in ocular tissues at 2 h later were determined by HPLC. The table below summarizes the findings.
Results: PS in this formulation was administered topically to the eyes of New Zealand white rabbits and its biodistribution was determined as above. The Table below summarizes the findings.
Results: PS in this formulation was administered topically as eye drops to the eyes of New Zealand white rabbits. The biodistribution of PS in ocular tissues at 3 h and 6 h was determined by HPLC. The Table below summarizes the findings.
Biodistribution of PS after topical administration: PS formulated in nanoparticles as above was administered topically as eye drops to New Zealand white rabbits. The biodistribution of PS in ocular tissues at the indicated time points post administration was determined by HPLC. The Table below summarizes the findings.
Biodistribution of PS after topical administration: PS in the formulations was administered topically as eye drops to the eyes of New Zealand white rabbits. The levels of PS in ocular tissues at 0.5 h, 1 h and 3 h were determined by HPLC. The Table below summarizes the findings.
To assess the contribution of the foregoing formulations to the PK/biodistribution of PS in the ocular tissues, a solution of PS in pure propylene glycol (PG) was studied. PG is well tolerated by the eye. A 3.5% PS solution (in PG) as eye drops was administered topically to the eyes of New Zealand white rabbits and its 1-hour biodistribution was determined by HPLC. The Table summarizes the findings.

JNK and Erk1/2 = assay: MAPK activation by phosphorylation in human conjunctival cells (immunoblot); format: cell-based; details: 3.5 h, FIG. 6B
Description: FIGS. 6A and 6B illustrate that PS suppresses the activation of NF-κB and MAPKs. In FIG. 6A, NF-κB activation was determined by EMSA in cultured human conjunctival cells stimulated with TNFα (top) and in the ILG of rabbits with Con A-induced DED and treated for one week with either vehicle or PS (bottom). In FIG. 6B, immunoblots detecting the activation of MAPKs by phosphorylation in cultured human conjunctival cells treated with PS at the indicated concentrations for 3.5 h. Loading control: β-actin.
Our conjunctiva cells express only the JNK and Erk1/2 pathways.

[2] = ciliary body, 5.4 % PS, Poloxamer 407 in-situ gel, 5.4% PS, read-out: PS in Ciliary body
[3] = conjunctiva, 5.4 % PS, Poloxamer 407 in-situ gel, 5.4% PS, read-out: PS in Conjunctiva
[4] = conjunctiva, topical eye drops, mPEG-PLA nanoparticles, read-out: PS in Conjunctiva
[5] = cornea, topical eye drops, mPEG-PLA nanoparticles, read-out: PS in Cornea
[6] = iris, 5.4 % PS, Poloxamer 407 in-situ gel, 5.4% PS, read-out: PS in Iris
[7] = iris, topical eye drops, mPEG-PLA nanoparticles, read-out: PS in Iris
[8] = lacrimal gland, topical eye drops, mPEG-PLA nanoparticles, read-out: PS in Lacrimal gland
[9] = lens, 5.4 % PS, Poloxamer 407 in-situ gel, 5.4% PS, read-out: PS in Lens
[10] = retina, 3 % PS, sodium alginate/Tween 80 in-situ gel, 3% PS, read-out: PS in Retina
[11] = retina, 5.4 % PS, Poloxamer 407 in-situ gel, 5.4% PS, read-out: PS in Retina
[12] = sclera, 5.4 % PS, Poloxamer 407 in-situ gel, 5.4% PS, read-out: PS in Sclera
[13] = sclera, topical eye drops, mPEG-PLA nanoparticles, read-out: PS in Sclera
[14] = vitreous, 5.4 % PS, Poloxamer 407 in-situ gel, 5.4% PS, read-out: PS in Vitreous

CCOP(=O)(OCC)OCCCCOC(=O)CC1=C(C)/C(=C/c2ccc([S+](C)[O-])cc2)c2ccc(F)cc21 (centres unmarked) [PS, phosphosulindac]
concentration at 1 h ([1]; choroid, 3.5 % PS solution (eye drops), topical eye drops, 3.5% PS solution in propylene glycol, read-out: PS in Choroid): 0 µM | concentration at 6 h ([1]; choroid, 5.4 % PS, Poloxamer 407 in-situ gel, 5.4% PS, read-out: PS in Choroid): 0 µM | concentration at 2 h ([1]; choroid, 0.5% gellan gum in-situ gel, 2.4~3% PS, read-out: PS in Choroid): 0 µM | concentration at 3 h [1, 2]: 0 µM | concentration at 6 h [1, 2]: 0 µM | concentration at 2 h ([1]; ciliary body, 0.5% gellan gum in-situ gel, 2.4~3% PS, read-out: PS in Ciliary body): 0 µM | concentration at 1 h ([1]; conjunctiva, 3.5 % PS solution (eye drops), topical eye drops, 3.5% PS solution in propylene glycol, read-out: PS in Conjunctiva): 3.3 µM | concentration at 3 h [1, 3]: 5.6 µM | concentration at 6 h [1, 3]: 10.7 µM | concentration at 0.5 h [1, 4]: 121 µM | concentration at 1 h [1, 4]: 80.4 µM | concentration at 2 h [1, 4]: 16.9 µM | concentration at 8 h ([1]; cornea, 3 % PS, sodium alginate/Tween 80 in-situ gel, 3% PS, read-out: PS in Cornea): 0 nM | concentration at 1 h ([1]; cornea, 3.5 % PS solution (eye drops), topical eye drops, 3.5% PS solution in propylene glycol, read-out: PS in Cornea): 38.8 µM | concentration at 6 h ([1]; cornea, 5.4 % PS, Poloxamer 407 in-situ gel, 5.4% PS, read-out: PS in Cornea): 13.6 µM | concentration at 0.5 h [1, 5]: 89.8 µM | concentration at 1 h [1, 5]: 63.9 µM | concentration at 2 h [1, 5]: 43.5 µM | concentration at 3 h [1, 6]: 0 µM | concentration at 6 h [1, 6]: 0 µM | concentration at 0.5 h [1, 7]: 2.8 µM | concentration at 1 h [1, 7]: 6.4 µM | concentration at 2 h [1, 7]: 1.3 µM | concentration at 2 h ([1]; iris, 0.5% gellan gum in-situ gel, 2.4~3% PS, read-out: PS in Iris): 0 µM | concentration at 1 h ([1]; lacrimal gland, 3.5 % PS solution (eye drops), topical eye drops, 3.5% PS solution in propylene glycol, read-out: PS in Lacrimal gland): 0.1 µM | concentration at 0.5 h [1, 8]: 7.5 µM | concentration at 1 h [1, 8]: 3.5 µM | concentration at 2 h [1, 8]: 0.6 µM | concentration at 2 h ([1]; lacrimal gland, 0.5% gellan gum in-situ gel, 2.4~3% PS, read-out: PS in Lacrimal Gland): 0 µM | concentration at 3 h [1, 9]: 0 µM | concentration at 6 h [1, 9]: 0 µM | concentration at 2 h ([1]; lens, 0.5% gellan gum in-situ gel, 2.4~3% PS, read-out: PS in Lens): 0 µM | concentration at 1 h [1, 10]: 0 µM | concentration at 3 h [1, 10]: 0 µM | concentration at 5 h ([1]; retina, 3 % PS, 5 h, sodium alginate/Tween 80 in-situ gel, 3% PS, read-out: PS in Retina): 0 nM | concentration at 8 h [1, 10]: 0 nM | concentration at 1 h ([1]; retina, 3.5 % PS solution (eye drops), topical eye drops, 3.5% PS solution in propylene glycol, read-out: PS in Retina): 0 µM | concentration at 3 h [1, 11]: 0 µM | concentration at 6 h [1, 11]: 0 µM | concentration at 2 h ([1]; retina, 0.5% gellan gum in-situ gel, 2.4~3% PS, read-out: PS in Retina): 0 µM | concentration at 1 h ([1]; sclera, 3.5 % PS solution (eye drops), topical eye drops, 3.5% PS solution in propylene glycol, read-out: PS in Sclera): 0 µM | concentration at 3 h [1, 12]: 0 µM | concentration at 6 h [1, 12]: 0 µM | concentration at 0.5 h [1, 13]: 32.1 µM | concentration at 1 h [1, 13]: 17.1 µM | concentration at 2 h [1, 13]: 4.7 µM | concentration at 2 h ([1]; sclera, 0.5% gellan gum in-situ gel, 2.4~3% PS, read-out: PS in Sclera): 0 µM | concentration at 1 h ([1]; vitreous body, 3.5 % PS solution (eye drops), topical eye drops, 3.5% PS solution in propylene glycol, read-out: PS in Vitreous body): 0 µM | concentration at 3 h ([1]; vitreous body, 3.5 % PS, topical eye drops, 3.5% PS/16% Vitamin E TPGS/mannitol/boric acid, read-out: PS in Vitreous body): 0 µM | concentration at 3 h [1, 14]: 0 µM | concentration at 6 h [1, 14]: 0 µM | concentration at 2 h ([1]; vitreous, 0.5% gellan gum in-situ gel, 2.4~3% PS, read-out: PS in Vitreous): 0 µM | activation by phosphorylation of JNK and Erk1/2 (JNK and Erk1/2): profoundly suppressed
